Test results taken from paper PMC7048932, “Examining sterically demanding lysine analogs for histone lysine methyltransferase catalysis” (Scientific Reports, 2020).

Legend:
SETD7 [1] = experiment: Inhibition study of SETD7 (MALDI-TOF MS); assay type: biochemical, human; details: peptide 100 µM, SETD7 100 nM, SAM 20 µM, 21-mer H3 peptide 5 µM, 30 min, 37 °C
Procedure: A mixture of histone peptide (0–100 µM final conc.) and SETD7, G9a or GLP (100 nM final conc.) was preincubated for 5 minutes at 37 °C in 18 µL of 50 mM glycine pH 8.8 containing 2.5% glycerol as assay buffer. Then 2 µL of a pre-mixture of SAM (20 µM final conc.) and 21-mer H3 histone peptide (residues 1–21, 5 µM final conc.) was added to afford a final assay mixture (20 µL) and the enzymatic reaction was incubated for an additional 30 minutes at 37 °C before quenching with 20 μL of MeOH. The quenched reaction (1 μL) was mixed with a solution of saturated α-cyano-4-hydroxycinnamic acid (5 μL) and spotted on the MALDI plate for crystallisation. The enzymatic activity was determined by taking the peak areas of each methylation state (including all isotopes and adducts) and is expressed relative to a control reaction in the absence of unnatural histone peptides. Each inhibition experiment was carried out in replicate.

SETD7 [2] = experiment: MALDI-TOF MS methylation assay of H3K4 peptides with SETD7; assay type: biochemical, human; details: peptide 100 µM, SETD7 2 µM, SAM 200 µM, 1 h, 37 °C
Procedure: (§1) MALDI-MS methyltransferases activity experiments were performed using a Bruker instrument in the reflectron positive mode. For regular methyltransferase standard conditions experiment which carried out in 30 µL total volume, the mixture contains peptide (100 µM), SAM (200 µM), SETD8 or SETD7 (2 µM), in assay buffer 50 mM Tris at optimal pH 8.0. In case of G9a and GLP, similar conditions were used, except (500 µM) of SAM was added to the reaction mixture. Samples were incubated in an Eppendorf vial 1.5 mL using thermomixer for 1 h at 37 °C. A 5 µL aliquot of the solution was mixed with 5 µL of MeOH, after which 5 µL of this mixture was mixed with 5 µL of α-cyano-4-hydroxycinamic acid matrix (CHCA, 5 mg/mL in 125:125 µL acetonitrile/water). The spots were placed on a stainless steel MALDI plate (MS 96 target ground steel BC of Bruker, Germany). The mass corresponding to one monomethylation observed as +14 Da, dimethylation observed as +28 Da and trimethylation observed as +42 Da. The enzymatic activity was determined by taking the peak areas of each methylation state, including all isotopes and adducts, and was annotated using FlexAnalysis software (Bruker Daltonics, Germany). […] Methylated peptide substrates were repeated five times and the unmethylated substrates were triplicated. Sequences of the examined peptides are given in (Supplementary Table 1).

SETD7 [3] = experiment: as above; assay type: biochemical, human; details: peptide 100 µM, SETD7 10 µM, SAM 1 mM, 1 h and 3 h, 37 °C
SETD8 [4] = target: T1, SETD8 (Homo sapiens, UniProt Q9NQR1); experiment: Competition study between H4K20 and analog peptides with SETD8 (MALDI-MS); assay type: biochemical; details: SETD8, equimolar H4K20 (100 µM) and H4KCP20 (100 µM), SAM 200 µM, 1 h, 37 °C
T1 construct: His6 (N); made in house; host or cells: E. coli BL21 (DE3)pLysS-rosetta
T1 sequence (Q9NQR1 1-393): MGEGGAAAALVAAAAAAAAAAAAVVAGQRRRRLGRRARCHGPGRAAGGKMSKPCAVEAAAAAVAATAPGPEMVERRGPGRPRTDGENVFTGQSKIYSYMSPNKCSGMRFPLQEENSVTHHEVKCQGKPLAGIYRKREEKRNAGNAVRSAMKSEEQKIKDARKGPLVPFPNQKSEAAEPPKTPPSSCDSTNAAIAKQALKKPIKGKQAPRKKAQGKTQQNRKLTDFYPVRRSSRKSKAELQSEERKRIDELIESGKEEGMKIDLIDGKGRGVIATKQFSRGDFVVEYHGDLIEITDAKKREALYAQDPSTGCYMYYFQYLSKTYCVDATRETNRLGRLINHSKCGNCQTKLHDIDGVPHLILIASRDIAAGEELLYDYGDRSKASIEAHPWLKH
Excerpt: Next, we carried out competition studies between histone peptides that bear lysine and its analogs. In the presence of SETD8, SAM and equimolar amounts of H4K20 and H4KCP20, we observed the formation of both monomethylated products, albeit a comparatively larger degree of monomethylation of H4K20 was found (70% of H4K20me, 40% of H4KCP20me). […] It is also possible that subtle differences in sterics and electronics of H4KCP20 when compared to H4K20 do contribute to observed differences in the degree of methylation in the competition experiment.
Figure S31. MALDI-MS based assay showing ( a) SETD8-catalyzed monomethylation of […]
(b) SETD8-catalyzed methylation of H4K20 (100 µM) in the presence of H4F 3a20 (100 µM) and SAM (200 µM) after 1 h at 37 °C; ( c) SETD8-catalyzed methylation of H4K20 (100 µM) in the presence of H4F 4a20 (100 µM) and SAM (200 µM) after 1 h at 37 °C; ( d) SETD8-catalyzed methylation of H4K20 (100 µM) in the presence of H4A p20 (100 µM) and SAM (200 µM) after 1 h at 37 °C; ( e) SETD8-catalyzed methylation of H4K20 (100 µM) in the presence of […]
(1 picture or pasted object on this page, not shown here)

SETD8 [5] = target: T1, SETD8; experiment: MALDI-TOF MS methylation assay of H4K20 peptides with SETD8; assay type: biochemical; details: peptide 100 µM, 37 °C; for SETD8-catalyzed methylation, result in words, increased SETD8/SAM and prolonged incubation: SETD8 10 µM, SAM 1 mM, 1 h and 5 h, MALDI-MS
Procedure: as §1, with “For regular methyltransferase standard conditions experiment which carried out in 30 µL total volume, the mixture contains peptide (100 µM), SAM (200 µM), SETD8 or SETD7 (2 µM), in assay buffer 50 mM Tris at optimal pH 8.0.” left out

SETD8 [6] = target: T1, SETD8; experiment: Enzyme kinetics of SETD8-catalyzed methylation (MALDI-TOF MS); assay type: biochemical; details: MALDI-TOF MS assay
Procedure: To establish the substrate efficiency of lysine- and KCP-containing histone peptides, we carried out enzyme kinetics analysis, employing the MALDI-TOF MS assays. Both enzymes preferentially catalyze methylation of natural histone sequences, however, bulkier KCP-containing peptides still underwent favorable kinetics profiles (Table 1 and Supplementary Fig. 30).
as §1

[7] = SETD8 2 µM, SAM 200 µM, 50 mM Tris pH 8.0, 1 h, MALDI-TOF MS

ART(F4a4)QTARKSTGGKA [H3F4a4, H3K4 peptide bearing para-aminophenylalanine at position 4]
inhibition of SETD7 at 100 µM peptide (SETD7 [1]): 11%
SETD7-catalyzed methylation, result in words (SETD7 [2]): lack of methylation

ART(Kcp4)QTARKSTGGKA [H3KCP4, H3K4 peptide bearing cyclopropyllysine at position 4]
SETD7-catalyzed methylation, result in words, high SETD7/SAM (SETD7 [3]): increased amount of the monomethylated H3KCP4me product
SETD7-catalyzed methylation, result in words, high SETD7/SAM (SETD7 [3]; listed as H3K CP4): monomethylation
SETD7-catalyzed methylation, result in words (SETD7 [2]): only traces
SETD7-catalyzed methylation, result in words (SETD7 [2]; listed as H3K CP4): traces of monomethylation

GGAKRHR(Kcp20)VLRDNIQ [H4KCP20, H4K20 peptide bearing cyclopropyllysine at position 20]
monomethylated product formed in competition experiment (SETD8 [4]): 40%
SETD8-catalyzed methylation, result in words (SETD8 [5]; [7]): methylation
monomethylated product formed (H4KCP20me) (SETD8 [5]; [7]): 60%
SETD8-catalyzed methylation, result in words, increased SETD8/SAM and prolonged incubation (SETD8 [5]): almost complete formation of the monomethylated H4KCP20me product
SETD8-catalyzed methylation, result in words, increased SETD8/SAM and prolonged incubation (SETD8 [5]; listed as H4K CP20): predominant monomethylation
Km (SETD8 [6]): 172 ± 37 µM
kcat (SETD8 [6]): 0.0113 ± 0.0013 s⁻¹
kcat/KM (SETD8 [6]): 66 M⁻¹ s⁻¹

GGAKRHRK^20VLRDNIQ [H4K20, reference compound]
monomethylated product formed in competition experiment (SETD8 [4]): 70%
SETD8-catalyzed methylation, result in words (SETD8 [5]; [7]): quantitative monomethylation
